Results on 1 molecule are retold here after patent US8378098B2, “Imidazol[1,2-α]quinoxalines and derivatives for the treatment of cancers” (Universite de Montpellier I, priority 2007, dated 2013).

The subject of data set [1] is RPMI7591 (melanoma). The data set is described as follows: in vitro cytotoxicity on RPMI7591 melanoma line. In kind it is cell-based. Conditions: Homo sapiens; Table 2; unit inferred; read-out: IC50 RPMI7591. The text has this:
Several human carcinoma cell lines were used: • Lines A375, M4Be, RPMI7591 from human melanoma. • Line LS174T from colon carcinoma. • Line A 2780 from ovarian carcinoma. • The Raji line from B lymphoma. • Line MCF7 from breast carcinoma.

Data set [2] relates to M4Be human melanoma. The data set is described as follows: anti-proliferative activity in vivo, M4Be human melanoma xenografted in athymic mice. On the procedure: FIG. 1: Effects of fotemustine (20 mg/kg once per week for 3 weeks) and EAPB0203 (20 mg/kg twice per week for 3 weeks) on tumour growth in athymic Swiss mice xenografted with M4Be human melanoma cell line.
Δ, control; ▪, EAPB0203; ●, fotemustine. The data are the results of only one experiment carried out on six mice per group. The results are represented as mean±SEM.
In this study, data are presented relating to the activity of EAPB0203 on the volume of a type of human melanoma tumour model (M4Be lines), xenografted in athymic mice. This study required as a preliminary step several tests of grafts of human melanoma cell lines in athymic mice before establishing the adequate animal model. The in vivo study was performed following the in vitro experiments described previously.
The activity and specificity of EAPB0203 in vivo on tumour growth of human melanoma are evaluated by monitoring tumour development in mice carrying M4Be melanoma treated by administration of fotemustine and EAPB0203 at various doses.
For this study, 18 Swiss nude mice (3 groups of 6 mice) were used. M4Be cancer cells in suspension were injected subcutaneously into the right flank of each athymic Swiss nude female 7-week-old mouse weighing 20-22 g at the beginning of the protocol. The mice were then maintained in a sterile atmosphere and received aseptic food and water. The weight of the mouse and the growth of the tumour in three dimensions were recorded twice a week.
A first group of 6 mice (reference) will receive fotemustine by intra-peritoneal route at a dose of 20 mg/kg once per week for 3 weeks, beginning 7 days after inoculation at the time when the tumour will be visible and palpable. A second group of 6 mice will receive EAPB0203 at the same dose of 20 mg/kg via intra-peritoneal route but twice per week (40 mg/kg per week). The third group (control) of 6 mice will receive only the administration carrier. Tumour volume is calculated by the following formula: length X width X height X 0.52, and is expressed as mean±SEM mm^3.
For fotemustine and EAPB0203, the sequence of administrations is a treatment of three weeks, then two weeks without treatment, and then a second treatment of three weeks.
For orientation: Xenograft models place foreign cells or tissue in a host animal.

As a reminder, the IC50 is the point on the concentration scale where inhibition reaches its midpoint.

Regarding `CNc1nc2ccccc2n2c(CCc3ccccc3)cnc12` [EAPB0203, N-methyl-1-(2-phenylethyl)imidazo[1,2-a]quinoxalin-4-amine], the IC50 in data set [1] came out at 4.23 ± 0.48 µM. The “tolerance (weight, side effects)” value in data set [2] (20 mg/kg twice per week, intra-peritoneal, mice carrying M4Be melanoma) is listed as “well tolerated without loss of weight or apparent side effects”. For the same molecule, the “tumour growth compared to control mice and fotemustine mice” value in data set [2] (EAPB0203 20 mg/kg twice per week i.p., FIG. 1) is reported as “significant delay in tumour growth”. For the same molecule, the “tumour volume of a remaining mouse when last fotemustine mice were euthanatized” value in data set [2] (day 76, 20 mg/kg twice per week i.p.) is “less than 2 cm^3”.
